From the supplement of paper PMC13380429

Experiments:
Conditions in all cases: 72 h
[1] = tested on: Caco-2; assay: cell viability relative to DMSO; higher = less toxic
[2] = tested on: Calu-3; assay: as above
[3] = tested on: HepG2; assay: as above
[4] = tested on: U2OS; assay: as above
[5] = tested on: Vero E6; assay: as above
[6] = tested on: Calu-3; assay: relative viability EC50 (midpoint between 100% and the lowest measured viability); higher = less toxic
[7] = tested on: U2OS; assay: as above
[8] = tested on: Caco-2; assay: drug sensitivity score (DSS) for viability; higher = more toxic; extreme values may be limits of the assay
[9] = tested on: Calu-3; assay: as above
[10] = tested on: HepG2; assay: as above
[11] = tested on: U2OS; assay: as above
[12] = tested on: Vero E6; assay: as above
[13] = tested on: HepG2; assay: relative viability EC50 (midpoint between 100% and the lowest measured viability); higher = less toxic
[14] = tested on: Vero E6; assay: as above

SMILES | cell viability ([1]; 1 nM) [%] | cell viability ([1]; 10 nM) [%] | cell viability ([1]; 100 nM) [%] | cell viability ([1]; 1000 nM) [%] | cell viability ([1]; 10000 nM) [%] | cell viability ([2]; 1 nM) [%] | cell viability ([2]; 10 nM) [%] | cell viability ([2]; 100 nM) [%] | cell viability ([2]; 1000 nM) [%] | cell viability ([2]; 10000 nM) [%] | cell viability ([3]; 1 nM) [%] | cell viability ([3]; 10 nM) [%] | cell viability ([3]; 100 nM) [%] | cell viability ([3]; 1000 nM) [%] | cell viability ([3]; 10000 nM) [%] | cell viability ([4]; 1 nM) [%] | cell viability ([4]; 10 nM) [%] | cell viability ([4]; 100 nM) [%] | cell viability ([4]; 1000 nM) [%] | cell viability ([4]; 10000 nM) [%] | cell viability ([5]; 1 nM) [%] | cell viability ([5]; 10 nM) [%] | cell viability ([5]; 100 nM) [%] | cell viability ([5]; 1000 nM) [%] | cell viability ([5]; 10000 nM) [%] | relative viability EC50 [6] [µM] | relative viability EC50 [7] [µM] | drug sensitivity score [8] | drug sensitivity score [9] | drug sensitivity score [10] | drug sensitivity score [11] | drug sensitivity score [12] | relative viability EC50 [13] [µM] | relative viability EC50 [14] [µM]
OCCN1CCN(CCCN2c3ccccc3Sc3ccc(Cl)cc32)CC1 [perphenazine] | 99.4 | 100 | 94.8 | 72.7 | 69.8 | 95.6 | 93.5 | 106 | 101 | 77.2 | 114 | 100 | 94.7 | 96 | 59.3 | 101 | 97 | 101 | 99.3 | 90.6 | 107 | 96.4 | 100 | 99.8 | 71.5 | > 10 | > 10 | 5.1 | 0.7 | 2.7 | 0 | 1.2 | – | –
COc1ccc(C(=O)c2c(C)n(CCN3CCOCC3)c3ccccc23)cc1 [pravadoline] | 104 | 99.7 | 91.9 | 95.1 | 50.8 | – | – | – | – | – | 100 | 99.9 | 108 | 100 | 99.5 | 92 | 97.4 | 95.5 | 99.7 | 55.5 | 106 | 107 | 105 | 100 | 95.7 | – | – | 3.4 | – | 0 | 2.3 | 0 | > 10 | > 10
O=C(C1CCCCC1)N1CC(=O)N2CCc3ccccc3C2C1 (stereo not drawn) [praziquantel] | 109 | 112 | 100 | 109 | 70.7 | 102 | 96.9 | 104 | 98.9 | 91.7 | 107 | 90.7 | 107 | 94.3 | 82.3 | 99 | 104 | 100 | 101 | 97.5 | 103 | 102 | 106 | 99.1 | 106 | > 10 | > 10 | 0.9 | 0 | 1 | 0 | 0 | > 10 | > 10
CCOC(=O)[C@H](CCc1ccccc1)N[C@@H](C)C(=O)N1[C@H](C(=O)O)C[C@@H]2CCC[C@@H]21 [ramipril] | – | – | – | – | – | – | – | – | – | – | – | – | – | – | – | – | – | – | – | – | – | – | – | – | – | – | – | – | 0 | 0 | 0 | 0 | – | –
C=CC(=O)Nc1cccc(Nc2nc(Nc3ccc(N4CCN(C(C)=O)CC4)cc3OC)ncc2C(F)(F)F)c1 [rociletinib] | 97.4 | 95.9 | 98.3 | 92.3 | 62.6 | 95.6 | 88.6 | 88.3 | 57.8 | 16.6 | 106 | 96.1 | 90.2 | 79.2 | 42.3 | 100 | 93.9 | 101 | 88 | 16.7 | 105 | 99.7 | 99.4 | 101 | 83 | 0.822 | 2.03 | 3.1 | 10 | 5.3 | 6.6 | 0.3 | 1.38 | > 10
Cc1cc(C)nc(NS(=O)(=O)c2ccc(N)cc2)n1 [sulfamethazine] | – | – | – | – | – | – | – | – | – | – | – | – | – | – | – | – | – | – | – | – | – | – | – | – | – | – | – | – | 0 | 0 | 0 | 0 | – | –
Nc1ccc(S(=O)(=O)Nc2cnc3ccccc3n2)cc1 [sulfaquinoxaline] | – | – | – | – | – | – | – | – | – | – | – | – | – | – | – | – | – | – | – | – | – | – | – | – | – | – | – | – | 0.4 | 0 | 0 | 0 | – | –
C[C@H](NC(=O)C(C)(C)Oc1ccc(C(F)(F)F)cn1)[C@@H](Cc1ccc(Cl)cc1)c1cccc(C#N)c1 [taranabant] | 97.3 | 108 | 105 | 94.4 | 73.4 | 96.5 | 95.5 | 94.4 | 107 | 86.6 | 105 | 106 | 111 | 103 | 72.4 | 100 | 95.8 | 96.3 | 95.2 | 90.9 | 103 | 96.5 | 99.6 | 97.8 | 85.5 | > 10 | > 10 | 1.9 | 0 | 1 | 0 | 0.4 | – | > 10
O[C@@H](COc1cccc2ncccc12)CN1CCN([C@@H]2c3ccccc3[C@@H]3[C@H](c4ccccc42)C3(F)F)CC1 [zosuquidar] | 99.5 | 102 | 87.8 | 90.2 | 55.2 | 102 | 108 | 91.5 | 96.1 | 85.7 | 104 | 98.8 | 95.6 | 92.4 | 63.1 | 99 | 99.4 | 99.4 | 98.2 | 76.2 | 104 | 105 | 98.7 | 98.5 | 72.6 | > 10 | > 10 | 3.6 | 0.1 | 3 | 1.1 | 1.3 | – | –
